Source: paper PMC8954382, “A Sub-Micromolar MraYAA Inhibitor with an Aminoribosyl Uridine Structure and a (S,S)-Tartaric Diamide: Synthesis, Biological Evaluation and Molecular Modeling” (Molecules, 2022)
Like-named read-outs stand apart in the source and are kept apart here.

Tests used:
[1] = biological target: T1, MraY transferase purified from Aquifex aeolicus (MraYAA) (Aquifex aeolicus, UniProt O66465); test: MraYAA transferase inhibition, fluorescence assay with dansylated UDP-MurNAc-pentapeptide; assay type: biochemical; settings: for IC50: inhibition of MraYAA transferase activity, triplicate, repeated at least twice
T1 construct: His tag; made in house
T1 sequence (O66465 whole entry): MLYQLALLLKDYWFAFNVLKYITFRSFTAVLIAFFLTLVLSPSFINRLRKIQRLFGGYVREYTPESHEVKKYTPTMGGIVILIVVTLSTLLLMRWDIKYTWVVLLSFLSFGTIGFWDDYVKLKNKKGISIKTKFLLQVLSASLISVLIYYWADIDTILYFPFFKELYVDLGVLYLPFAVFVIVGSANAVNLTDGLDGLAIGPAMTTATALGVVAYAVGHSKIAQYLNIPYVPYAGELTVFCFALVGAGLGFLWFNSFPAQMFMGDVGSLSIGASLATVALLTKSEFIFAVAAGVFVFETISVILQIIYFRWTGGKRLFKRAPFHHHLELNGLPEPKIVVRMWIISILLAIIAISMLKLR
Method: The inhibitory activity of the synthesized compounds 2, (S,S)-3a, (R,R)-3b, 4 and 5 was evaluated on MraY transferase purified from Aquifex aeolicus (MraYAA), which was prepared as previously described by Chung et al.. Their activity was compared to the inhibitory activity of the unprotected amino precursor 12, urea-containing inhibitor 13 and C- and N-triazole-containing inhibitors 14 and 15 (Figure 4) that we previously synthesized (Table 1). Commercially available tunicamycin from Streptomyces sp. was used as a positive control in the test.
The inhibitory activity of the synthesized compounds 1–5 was determined as described in Reference. The compounds were evaluated on His-tagged MraY transferase purified from Aquifex aeolicus (MraYAA) prepared as previously described by Chung et al.. The assays were performed as previously described by Stachyra et al. in 96-well plates in a total reaction mixture of 100 µL containing 100 mM of Tris-HCl (pH 7.5), 40 mM MgCl2, 150 µM C55-P, 150 mM NaCl, 25 µM dansylated UDP-MurNAc-pentapeptide and 0.4% of n-dodecyl β-D-maltoside. The reaction was initiated by the addition of pure MraYAA enzyme (10 µL, 0.036 mg/mL). Briefly, MraY catalyzed the formation of lipid I, displaying an apolar environment from polar and hydrosoluble dansylated-UDP-MurNAc-pentapeptide. This modification in the environment of the dansyl probe was accompanied by an enhancement (3.4 times) of fluorescence, as well as a shift of the maximum of fluorescence emission spectrum from 560 nm for the dansylated nucleotidic substrate to 530 nm for the dansylated lipid product (see Figure 2 in Stachyra et al.. This property was exploited to develop an HTS assay and to assess MraY activity by using an Enspire fluorescence microplate reader (Perkin-Elmer, Courtaboeuf, France). The fluorescence measurement was read every two minutes at 37 °C, under shaking during 60 min; the excitation wavelength and the emission wavelength were 340 nm and 530 nm, respectively. Experiments were performed in triplicate, and each experiment was repeated at least twice. In each case, the fluorescence of a control sample without enzyme was subtracted, initial velocity was calculated and percent inhibition was deduced. IC50 values were determined from plots of the percent inhibition versus the inhibitor concentration, and data were processed on Excel software.

[2] = system: Citrobacter freundii ATCC 8090; test: Antibacterial activity, MIC by broth microdilution; assay type: cell-based; settings: Gram -
Method: (§1) Even if our goal was to improve the MraY inhibitory activity of the reference urea 13, and that was successfully achieved, the antibacterial activity of MraY inhibitors 2–5 was also evaluated against several bacterial strains. Gram-negative (E. coli ATCC 8730, C. freundii ATCC8090 and P. aeruginosa ATCC 27853) and Gram-positive pathogenic bacterial strains (S. aureus ATCC 25923 and E. faecium ATCC 19434), including a methicillin resistant strain (S. aureus MRSA ATCC 43300), were selected as representative of pathogen bacterial diversity. Piperacillin and vancomycin were used as positive controls in the tests. […] Therefore, further optimization of the lipophilic side chain is still required to increase the antibacterial activity by modulating the lipophilicity of the molecule.
(§2) Tests were made according to the procedure described in Reference, following EUCAST (European Committee on Antimicrobial Susceptibility testing)/CLSI (Clinical and Laboratory Standard Institute) recommended procedure. This microtitration plate size allows direct detection of bacterial growth in a relatively small volume, without the use of a spectrophotometer or the addition of dyes. Molecules were solubilized in 100% DMSO (cell culture grade) at 20.48 mg/mL concentration and 40-fold diluted in MHB to reduce DMSO concentration in the antibacterial test, just before utilization. The MHB-diluted solutions were then serially two-fold diluted in MHB, at final concentration ranging from 128 to 1 µg/mL. Bacterial inoculums were prepared for each strain, resuspending isolated colonies from 18 h cultured plates. Equivalents of 0.5 Mac Farland turbidity standard (approximately 1.108 CFU/mL) were prepared in saline solution (NaCl […]) and diluted 200-fold in MBH. The bacterial suspensions were then added to microplates containing the diluted molecules. Microtitration plates were incubated overnight at 37 °C. MICs were determined as the lowest dilution of product showing no visual turbidity.

[3] = system: Enterococcus faecium ATCC 19434; test: Antibacterial activity, MIC by broth microdilution; assay type: cell-based; settings: Gram +
Method: as §1, §2

[4] = system: Escherichia coli ATCC 8730; test: Antibacterial activity, MIC by broth microdilution; assay type: cell-based; settings: Gram -
Method: as §1, §2

[5] = system: Pseudomonas aeruginosa ATCC 27853; test: Antibacterial activity, MIC by broth microdilution; assay type: cell-based; settings: Gram -
Method: as §1, §2

[6] = system: Staphylococcus aureus ATCC 25923; test: Antibacterial activity, MIC by broth microdilution; assay type: cell-based; settings: Gram +
Method: as §1, §2

[7] = system: Staphylococcus aureus MRSA ATCC 43300; test: Antibacterial activity, MIC by broth microdilution; assay type: cell-based; settings: Gram +
Method: as §1, §2

MraY = settings: Table 2, known inhibitor, cited from earlier work
[8] = system: six selected bacterial species; parameters: method as in PMID 34115086; settings: previously reported; ref [32]; cited from earlier work

CCCCCCCCCCNC(=O)C(O)C(O)C(=O)NCC(OC1OC(CN)C(O)C1O)C1OC(n2ccc(=O)[nH]c2=O)C(O)C1O [(R,R)-3b]
IC50 [1]: 1380 ± 50 nM
CMI [2]: > 128 µg/mL
CMI [3]: > 128 µg/mL
CMI [4]: > 128 µg/mL
CMI [5]: > 128 µg/mL
CMI [6]: 128 µg/mL
CMI [7]: > 128 µg/mL

CCCCCCCCCCCCCCCCC[C@H]1CN(C)[C@@H]([C@H](O[C@@H]2O[C@H](CN)[C@@H](O)[C@H]2O)[C@H]2O[C@@H](n3ccc(=O)[nH]c3=O)[C@H](O)[C@@H]2O)C(=O)N(C)[C@@H]1C(=O)O [Carbacaprazamycin]
IC50 (MraY; ref [31]): 104 nM

CCCCCCCCCCNc1c(NCC(OC2OC(CN)C(O)C2O)C2OC(n3ccc(=O)[nH]c3=O)C(O)C2O)c(=O)c1=O (stereo not drawn) [Compound 2]
IC50 [1]: 17970 ± 40 nM
CMI [2]: > 128 µg/mL
CMI [3]: > 128 µg/mL
CMI [4]: > 128 µg/mL
CMI [5]: > 128 µg/mL
CMI [6]: > 128 µg/mL
CMI [7]: > 128 µg/mL

CCCCCCCCCCC(=O)NCC(OC1OC(CN)C(O)C1O)C1OC(n2ccc(=O)[nH]c2=O)C(O)C1O (stereo not drawn) [Compound 4]
IC50 [1]: 6490 ± 210 nM
CMI [2]: > 128 µg/mL
CMI [3]: 128 µg/mL
CMI [4]: > 128 µg/mL
CMI [5]: > 128 µg/mL
CMI [6]: 128 µg/mL
CMI [7]: 128 µg/mL

CCCCCCCCCCS(=O)(=O)NCC(OC1OC(CN)C(O)C1O)C1OC(n2ccc(=O)[nH]c2=O)C(O)C1O (stereo not drawn) [Compound 5]
IC50 [1]: 2910 ± 130 nM
CMI [2]: > 128 µg/mL
CMI [3]: > 128 µg/mL
CMI [4]: > 128 µg/mL
CMI [5]: > 128 µg/mL
CMI [6]: > 128 µg/mL
CMI [7]: > 128 µg/mL

NC[C@H](O[C@@H]1O[C@H](CN)[C@@H](O)[C@H]1O)[C@H]1O[C@@H](n2ccc(=O)[nH]c2=O)[C@H](O)[C@@H]1O [Compound 12, reference compound]
IC50 [1]: 50300 ± 3270 nM

CCCCCCCCCCNC(=O)NC[C@H](O[C@@H]1O[C@H](CN)[C@@H](O)[C@H]1O)[C@H]1O[C@@H](n2ccc(=O)[nH]c2=O)[C@H](O)[C@@H]1O [Compound 13, reference compound]
IC50 [1]: 1930 ± 130 nM
CMI [2]: > 128 µg/mL
CMI [3]: > 128 µg/mL
CMI [4]: > 128 µg/mL
CMI [5]: > 128 µg/mL
CMI [6]: > 128 µg/mL
CMI [7]: > 128 µg/mL
antibacterial activity [8]: does not display antibacterial activity

CCCCCCCCCCNC(=O)C(O)C(O)C(=O)NCC(OC1OC(CN)C(O)C1O)C1OC(n2ccc(=O)[nH]c2=O)C(O)C1O [Compound (S,S)-3a]
IC50 [1]: 370 ± 10 nM
gain in activity (factor) as compared to the reference compound 13 with an urea linker ([1]; ratio of MraYAA IC50 values): 5
CMI [2]: > 128 µg/mL
CMI [3]: > 128 µg/mL
CMI [4]: > 128 µg/mL
CMI [5]: > 128 µg/mL
CMI [6]: 128 µg/mL
CMI [7]: > 128 µg/mL

CC(C)C[C@H](NC(=O)[C@@H](NC(=O)N[C@H](C(=O)O)C(C)C)[C@@H]1CCN=C(N)N1)C(=O)NCCCN[C@H](C(=O)O)[C@H](O[C@@H]1O[C@H](CN)[C@@H](O)[C@H]1O)[C@H]1O[C@@H](n2ccc(=O)[nH]c2=O)[C@H](O)[C@@H]1O [Muraymycin D2]
IC50 (MraY; ref [41]): 46 nM

CCN1CCN(C(=O)N[C@@H](C(=O)N[C@@H]2C(=O)N3[C@@H]2SC(C)(C)[C@@H]3C(=O)O)c2ccccc2)C(=O)C1=O [Piperacillin, reference compound]
CMI [2]: 4 µg/mL
CMI [3]: 4 µg/mL
CMI [4]: 4 µg/mL
CMI [5]: 8 µg/mL
CMI [6]: 4 µg/mL
CMI [7]: > 128 µg/mL

CN[C@H](CC(C)C)C(=O)N[C@H]1C(=O)N[C@@H](CC(N)=O)C(=O)N[C@H]2C(=O)N[C@H]3C(=O)N[C@H](C(=O)N[C@H](C(=O)O)c4cc(O)cc(O)c4-c4cc3ccc4O)[C@H](O)c3ccc(c(Cl)c3)Oc3cc2cc(c3O[C@@H]2O[C@H](CO)[C@@H](O)[C@H](O)[C@H]2O[C@H]2C[C@](C)(N)[C@H](O)[C@H](C)O2)Oc2ccc(cc2Cl)[C@H]1O [Vancomycin, reference compound]
CMI [3]: 0.5 µg/mL
CMI [6]: 1 µg/mL
CMI [7]: 1 µg/mL

Tunicamycin [reference compound]
IC50 [1]: 26 nM
